Article PMC4158172 (European Journal of Clinical Pharmacology, 2014)
Like-named read-outs stand apart in the source and are kept apart here.

What was measured:
OATP1B3 = test system: OATP1B3; set-up: method as in PMID 23132334; settings: in vitro; cited from earlier work
UGT1A1 = test system: UGT1A1; set-up: method as in PMID 23132334; settings: in vitro; cited from earlier work
[1] = Safety evaluations, interaction study with EFV; type: in vivo, human; settings: healthy subjects n=12
Experimental: (§1) In both studies, safety evaluations [adverse event (AE) reporting, clinical chemistry laboratory tests, urinalysis, vital signs and electrocardiogram] were performed throughout the study. Given the known hepatotoxicity profile of TPV/r, more frequent monitoring of liver chemistries was performed in the TPV/r study, and conservative stopping criteria were employed such that any subject reaching a grade 2 increase in alanine aminotransferase (ALT) or aspartate aminotransferase (AST) was discontinued from the trial. Both trials were conducted as inpatient studies with subjects housed in the unit for the duration of the study. The studies were conducted in accordance with the principles of the Declaration of Helsinki. A written informed consent was obtained from all subjects, and both protocols were approved by the institutional review board of the study sites.

[2] = set-up: method as in earlier work; settings: SAILING, DTG 50 mg once daily with EFV- or TPV/r-containing background regimens, n=16; cited from earlier work
CYP3A4 = settings: in vivo; cited from earlier work
[3] = Plasma metabolic profile of DTG (pooled plasma); type: in vivo, human; settings: individual 24-h proportionally pooled plasma, DTG alone and DTG + EFV
Experimental: (§2) There was no washout between treatment periods. All doses were administered in the fasting state.
(§3) Urine samples were collected at intervals of 0 to 12 hours and 12 to 24 hours after each treatment period. Individual urine pools were produced for each subject in a given treatment group by combining proportional volumes (% of total volume) from the 0- to 12-hours and 12- to 24-hours collections. Individual pooled human plasma samples were prepared for each subject and treatment group.
Each pooled plasma sample was mixed with aqueous EDTA disodium salt solution (10 mg/mL) and subsequently extracted 3 times with methanol and acetonitrile. Pooled urine samples were lyophilised and the residue was reconstituted in water:methanol (90:10 v/v). Drug-related components in plasma extracts and urine samples were separated on a 100 × 4.6 mm 3.5-micron Symmetry C18 column (Waters Associates) at 40°C by a step-gradient elution method with a mobile phase composition of water:acetonitrile containing 0.1% ammonium acetate starting at 95:5 (v/v) and ending at 5:95 (v/v) over 50 minutes. The eluate was analysed by multistage mass spectrometry (MSn) using an LTQ Orbitrap™ Hybrid Mass Spectrometer with Xcalibur 2.07 software (Thermo Fisher Scientific, Bremen, Germany). […]

[4] = cited from earlier work
[5] = Safety evaluations, interaction study with TPV/r; type: in vivo, human; settings: healthy subjects n=18
Experimental: as §1

[6] = DTG steady-state plasma pharmacokinetics, interaction with EFV; type: in vivo, human; settings: for Cmax / AUC / concentration at 24 h / Tmax: both sexes, human, oral, fasting; for AUC: read-out: AUC(0–τ); for concentration at 24 h: read-out: C τ; for Tmax: n=12, median (range)
Experimental: There was no washout between treatment periods. All doses were administered in the fasting state. […]

OATP1B1 = settings: cited from earlier work
CYP isozymes = test system: CYP isozymes; set-up: method as in PMID 23132334; settings: in vitro; cited from earlier work
[7] = Urinary metabolic profile of DTG (pooled urine); type: in vivo, human; settings: pooled urine 0-24 h, n=12, mean (standard deviation)
Experimental: as §2, §3
Each pooled plasma sample was mixed with aqueous EDTA disodium salt solution (10 mg/mL) and subsequently extracted 3 times with methanol and acetonitrile. Pooled urine samples were lyophilised and the residue was reconstituted in water:methanol (90:10 v/v). Drug-related components in plasma extracts and urine samples were separated on a 100 × 4.6 mm 3.5-micron Symmetry C18 column (Waters Associates) at 40°C by a step-gradient elution method with a mobile phase composition of water:acetonitrile containing 0.1% ammonium acetate starting at 95:5 (v/v) and ending at 5:95 (v/v) over 50 minutes. The eluate was analysed by multistage mass spectrometry (MSn) using an LTQ Orbitrap™ Hybrid Mass Spectrometer with Xcalibur 2.07 software (Thermo Fisher Scientific, Bremen, Germany). Data-dependent scanning using an accurate mass list, consisting of all previously characterised metabolites, was used in addition to analysis of pre-dose samples to aid in the distinction of drug-related material from endogenous components.

P-glycoprotein (P-gp) = test system: P-glycoprotein (P-gp); set-up: method as in PMID 23132334; settings: in vitro; cited from earlier work
BCRP = test system: BCRP; set-up: method as in PMID 23132334; settings: in vitro; cited from earlier work
UGT2B7 = test system: UGT2B7; set-up: method as in PMID 23132334; settings: in vitro; cited from earlier work
HIV = test system: HIV; set-up: method as in earlier work; settings: SAILING, cited from earlier work
MRP2 = test system: MRP2; set-up: method as in PMID 23132334; settings: in vitro; cited from earlier work
CYP2B6 = test system: CYP2B6; set-up: method as in PMID 23132334; settings: in vitro; cited from earlier work
[8] = plasma, DTG 50 mg + EFV 600 mg q24h for 14 days, n=12, geometric mean (CV%)
[9] = plasma, DTG 50 mg q24h alone for 5 days, n=12, geometric mean (CV%)
[10] = co-administration of EFV 600 mg q24h and DTG 50 mg q24h

C[C@@H]1CCO[C@H]2Cn3cc(C(=O)NCc4ccc(F)cc4F)c(=O)c(O)c3C(=O)N12 [DTG, Dolutegravir]
direct inhibition of OATP1B3 (OATP1B3): minimal or no direct inhibition | direct inhibition of UGT1A1 (UGT1A1): minimal or no direct inhibition | subjects reporting at least one AE [1]: 17% | tolerability ([1]; repeat doses): generally well tolerated | lower average DTG pre-dose (C 0) concentration [2]: 78% | pre-dose (C 0) concentration, geometric mean [2]: 186 ng/mL | component of metabolism via CYP3A4 (CYP3A4): ~10% | share of drug-related material in plasma [3]: > 97% | C0 ([4]; DTG 50 mg once daily without inducers, phase III studies in INI-naive populations): approximately 1.2 μg/mL | C0 (equivalent to C τ), geometric mean ([4]; VIKING-3, DTG 50 mg twice daily with EFV and TPV/r in background regimens, n=18, CV 63 %): 1620 ng/mL | C0 higher than with DTG 50 mg once daily without inducers ([4]; VIKING-3, DTG 50 mg twice daily with EFV and TPV/r in background regimens, n=18): 35% | subjects reporting headache [5]: 11% | GLS mean ratio (90 % CI) of AUC(0–τ) ([6]; DTG+EFV vs DTG alone, n=12): 0.431 (0.346, 0.536) | GLS mean ratio (90 % CI) of C max ([6]; DTG+EFV vs DTG alone, n=12): 0.608 (0.506, 0.730) | GLS mean ratio (90 % CI) of C τ ([6]; DTG+EFV vs DTG alone, n=12): 0.245 (0.179, 0.336) | Cmax ([6]; DTG 50 mg q24h alone for 5 days, healthy subjects n=12, plasma, geometric mean (CV%)): 3080 ng/mL | Cmax [6, 8]: 1870 ng/mL | AUC [6, 8]: 18200 ng·h/mL | concentration at 24 h [6, 8]: 220 ng/mL | Tmax ([6]; plasma, DTG 50 mg + EFV 600 mg q24h for 14 days): 1 h | AUC [6, 9]: 42300 ng·h/mL | concentration at 24 h [6, 9]: 910 ng/mL | Tmax ([6]; plasma, DTG 50 mg q24h alone for 5 days): 2 h | decrease in plasma DTG AUC(0–τ) [6, 10]: 57% | decrease in plasma DTG C max [6, 10]: 39% | decrease in plasma DTG C τ [6, 10]: 75% | direct inhibition of OATP1B1 (OATP1B1): minimal or no direct inhibition | direct inhibition of CYP isozymes (CYP isozymes): minimal or no direct inhibition | % DTG ([7]; DTG 50 mg + EFV q24h): 100% | % Total drug-related response ([7]; DTG 50 mg + EFV q24h): 6.2 (5.0) % | % DTG ([7]; DTG 50 mg q24h): 100% | % Total drug-related response ([7]; DTG 50 mg q24h): 6.4 (1.8) % | direct inhibition of P-gp (P-glycoprotein (P-gp)): minimal or no direct inhibition | direct inhibition of BCRP (BCRP): minimal or no direct inhibition | direct inhibition of UGT2B7 (UGT2B7): minimal or no direct inhibition | week 48 Snapshot response rate (HIV; DTG 50 mg once daily with EFV- or TPV/r-containing background regimens, n=16): 56.3% | week 48 Snapshot response rate (HIV; subjects not on these inducers or inhibitors (atazanavir and atazanavir/ritonavir)): 74.4% | direct inhibition of MRP2 (MRP2): minimal or no direct inhibition | induction of CYP2B6 (CYP2B6): not an inducer
